Source: patent US7790738B2, “Methods of treating and preventing AIDS using of COX-2 inhibitors” (Lauras AS, priority 2000, dated 2010)
Where two headings read alike, the source gives them in different places.

Legend:
COX-1 [1] = target: T1, COX-1 (Bos taurus, UniProt O62664)
T1 construct: IC50 values for NSAID's in intact cell on COX-1; endogenous in cells; host or cells: bovine endothelial cells
T1 sequence (O62664 25-600): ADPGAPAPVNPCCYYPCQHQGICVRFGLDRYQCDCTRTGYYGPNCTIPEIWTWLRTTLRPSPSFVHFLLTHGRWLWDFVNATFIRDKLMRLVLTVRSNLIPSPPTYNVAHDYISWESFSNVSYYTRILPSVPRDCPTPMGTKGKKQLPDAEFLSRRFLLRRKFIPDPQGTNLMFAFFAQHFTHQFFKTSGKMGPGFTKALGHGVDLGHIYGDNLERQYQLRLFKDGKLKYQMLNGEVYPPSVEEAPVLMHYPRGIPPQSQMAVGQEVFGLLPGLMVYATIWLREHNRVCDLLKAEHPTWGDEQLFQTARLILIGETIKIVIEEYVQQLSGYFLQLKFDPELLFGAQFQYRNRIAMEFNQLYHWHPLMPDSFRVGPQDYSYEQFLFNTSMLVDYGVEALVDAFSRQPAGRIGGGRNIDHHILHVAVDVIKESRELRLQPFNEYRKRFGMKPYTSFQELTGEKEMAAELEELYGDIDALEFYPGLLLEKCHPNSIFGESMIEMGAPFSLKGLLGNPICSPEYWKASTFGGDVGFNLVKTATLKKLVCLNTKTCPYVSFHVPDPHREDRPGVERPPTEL

COX-2 [2] = target: T2, COX-2 (Homo sapiens, UniProt P35354); conditions: read-out: COX-2 IC50, cited from earlier work
T2 sequence (P35354 18-604): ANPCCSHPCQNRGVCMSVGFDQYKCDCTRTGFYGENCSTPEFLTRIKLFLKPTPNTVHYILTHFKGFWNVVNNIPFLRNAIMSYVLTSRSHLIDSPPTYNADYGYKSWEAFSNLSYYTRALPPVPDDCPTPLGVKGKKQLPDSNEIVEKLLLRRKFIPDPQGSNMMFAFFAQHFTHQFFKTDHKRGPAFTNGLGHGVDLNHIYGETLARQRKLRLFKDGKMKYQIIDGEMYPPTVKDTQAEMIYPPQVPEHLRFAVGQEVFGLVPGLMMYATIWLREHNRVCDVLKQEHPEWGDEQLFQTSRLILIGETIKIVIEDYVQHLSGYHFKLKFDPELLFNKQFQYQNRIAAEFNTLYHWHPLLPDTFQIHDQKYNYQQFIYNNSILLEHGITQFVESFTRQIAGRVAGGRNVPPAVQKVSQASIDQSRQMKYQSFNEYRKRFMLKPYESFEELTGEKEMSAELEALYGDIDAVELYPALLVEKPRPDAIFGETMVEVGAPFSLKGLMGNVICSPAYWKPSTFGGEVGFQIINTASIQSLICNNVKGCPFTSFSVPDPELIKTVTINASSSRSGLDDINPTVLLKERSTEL

COX-2 [3] = target: T3, COX-2 (Mus musculus, UniProt Q05769); conditions: cited from earlier work; for IC50: read-out: COX-2 IC50
T3 construct: endogenous in cells
T3 sequence (Q05769 18-604): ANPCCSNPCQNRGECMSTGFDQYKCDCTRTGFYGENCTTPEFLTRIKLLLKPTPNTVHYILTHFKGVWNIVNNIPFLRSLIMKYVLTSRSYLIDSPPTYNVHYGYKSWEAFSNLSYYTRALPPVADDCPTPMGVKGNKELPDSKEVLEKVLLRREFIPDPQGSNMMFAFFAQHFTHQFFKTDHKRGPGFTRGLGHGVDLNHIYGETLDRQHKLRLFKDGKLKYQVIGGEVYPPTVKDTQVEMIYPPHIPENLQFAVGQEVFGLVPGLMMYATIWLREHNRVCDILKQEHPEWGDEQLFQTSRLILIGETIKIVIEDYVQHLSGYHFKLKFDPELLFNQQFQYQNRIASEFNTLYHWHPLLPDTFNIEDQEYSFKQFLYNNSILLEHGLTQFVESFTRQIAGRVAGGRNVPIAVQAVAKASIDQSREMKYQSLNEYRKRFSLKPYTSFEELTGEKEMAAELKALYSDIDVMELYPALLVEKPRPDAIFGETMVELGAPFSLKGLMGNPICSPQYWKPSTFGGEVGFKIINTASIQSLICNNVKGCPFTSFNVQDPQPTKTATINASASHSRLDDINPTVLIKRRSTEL

COX-1 [4] = target: COX-1 (Cavia porcellus, UniProt H0V9X9); conditions: read-out: COX-1 IC50; guinea pig macrophage model; Engelhart et al. 1995; cited from earlier work
[5] = tested on: CD3+ T cells from MAIDS and control mice; experiment: TCR/CD3 stimulated proliferation of isolated T cells, [3H]-thymidine incorporation; type: cell-based, mouse; conditions: median, read-out: Inhibition of proliferation by 8-CPT-cAMP (IC50)
Experimental: TCR/CD3 stimulated T cell proliferation was assessed with isolated T cells from MAIDS mice (A) and uninfected control mice (B). The effect of increasing concentrations of cAMP agonist (8-CPT-cAMP) on TCR/CD3 stimulated proliferation of CD3+ T cells isolated from MAIDS (open circles, dotted line) and control mice (filled circles and solid line) was examined separately in the same experiments (C). Mean values of triplicate determinations±SD are shown. See Table 4 for summarised data (n=11). Note: Scaling differs in A and B, whereas in C the TCR/CD3 induced proliferation in the absence of cAMP agonist is normalized to 100% for both MAIDS and control T cells;
Activation was achieved by subsequent addition of monodisperse magnetic beads coated with sheep anti-mouse IgG (Dynal, cat. no. 110.02) at a cell:bead ratio of 1:1 followed by addition of anti-CD3 (clone 2C11) at a final dilution of 4 μg/ml for the experiments shown. […] 8-CPT-cAMP was from Sigma (St. Louis, Mo.) and Sp- and Rp-8-Br-cAMPS were from BioLog Life Science Company (Bremen, Germany) and were all dissolved to concentrations of 4 to 10 mM in PBS and concentrations calculated using the extinction coefficients given by the manufacturer.

[6] = intact cell, bovine endothelial cells; Taketo 1998; read-out: COX-1 IC50; cited from earlier work
[7] = intact cell, stimulated macrophages, Taketo 1998
[8] = read-out: COX-1 IC50; intact cell, bovine endothelial cells; Taketo 1998; cited from earlier work

Chain of COX-1 (Cavia porcellus, UniProt H0V9X9) (H0V9X9 entry or part of it): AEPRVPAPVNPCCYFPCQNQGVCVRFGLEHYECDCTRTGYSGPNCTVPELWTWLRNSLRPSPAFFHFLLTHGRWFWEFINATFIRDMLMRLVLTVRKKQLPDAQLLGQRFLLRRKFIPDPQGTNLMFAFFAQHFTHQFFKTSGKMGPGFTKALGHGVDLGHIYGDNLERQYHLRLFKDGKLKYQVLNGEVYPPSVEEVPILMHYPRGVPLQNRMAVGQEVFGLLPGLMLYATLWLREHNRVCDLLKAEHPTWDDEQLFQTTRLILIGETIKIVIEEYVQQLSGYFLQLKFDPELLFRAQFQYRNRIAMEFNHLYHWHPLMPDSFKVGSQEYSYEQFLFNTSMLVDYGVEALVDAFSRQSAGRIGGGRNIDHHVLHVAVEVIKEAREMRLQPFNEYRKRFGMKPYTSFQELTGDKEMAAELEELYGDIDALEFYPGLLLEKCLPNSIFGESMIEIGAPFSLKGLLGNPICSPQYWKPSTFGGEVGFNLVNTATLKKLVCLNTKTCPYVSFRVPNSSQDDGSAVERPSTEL

Structure (SMILES): CC(C(=O)O)c1ccc(-c2ccccc2)c(F)c1 (centres unmarked) [Flubiprofen]
- IC50 (COX-1 [1]; [6]): 20 nM

Structure (SMILES): CCc1cccc2c3c([nH]c12)C(CC)(CC(=O)O)OCC3 (centres unmarked) [Etodolac]
- IC50 (COX-2 [2]): 60000 nM

Structure (SMILES): Cc1c(Cl)cccc1Nc1ccccc1C(=O)O [Tolfenamic acid]
- IC50 (COX-2 [3]; [7]): 5 nM
- COX-2 selectivity COX-1/COX-2 (COX-2 [3]; ratio of IC50, intact cells): 0.06
- IC50 (COX-1 [1]; [6]): 0.3 nM

Structure (SMILES): NC(=O)N1C(=O)/C(=C(\O)c2cccs2)c2cc(Cl)ccc21 [Teridep]
- IC50 (COX-1 [4]): 393 nM

Structure (SMILES): CC(=O)Nc1ccc(O)cc1 [Acetaminophen]
- IC50 (COX-1 [1]; [6]): 2700 nM

Structure (SMILES): CC(C(=O)O)c1ccc2c(c1)[nH]c1ccc(Cl)cc12 (centres unmarked) [Carprofen]
- COX-2 selectivity COX-1/COX-2 (COX-2 [3]): 1
- IC50 (COX-2 [3]): 3000 nM
- IC50 (COX-1 [1]; [8]): 3000 nM

Structure (SMILES): O=C(O)Cc1ccccc1Nc1c(Cl)cccc1Cl [Diclofenac]
- IC50 (COX-1 [4]): 0.855 nM

Structure (SMILES): CN1C(C(=O)Nc2ccccn2)=C(O)c2ccccc2S1(=O)=O [Piroxicam]
- IC50 (COX-1 [4]): 5.27 nM

Structure (SMILES): CCCCC1C(=O)N(c2ccccc2)N(c2ccccc2)C1=O [Phenylbutazone]
- IC50 (COX-2 [2]; recombinant human PGH synthesis, Laneuvill et al. 1994): > 100000 nM

Structure (SMILES): Nc1ncnc2c1nc(Sc1ccc(Cl)cc1)n2[C@@H]1O[C@@H]2COP(=O)(O)O[C@H]2[C@H]1O [8-CPT-cAMP]
- IC50 ([5]; MAIDS mice, n = 5): 220 nM
- IC50 ([5]; control mice, n = 4): 400 nM

Structure (SMILES): CN1OCC/C(=C\c2cc(C(C)(C)C)c(O)c(C(C)(C)C)c2)C1=O [BF 389]
- IC50 (COX-2 [3]; [7]): 30 nM
- COX-2 selectivity COX-1/COX-2 (COX-2 [3]; ratio of IC50, intact cells): 5
- IC50 (COX-1 [1]; [6]): 150 nM

Structure (SMILES): O=C([O-])c1ccccc1O.[Na+] [Sodium salicylate]
- IC50 (COX-2 [3]; [7]): 100000 nM
- COX-2 selectivity COX-1/COX-2 (COX-2 [3]; ratio of IC50, intact cells): 0.35
- IC50 (COX-1 [1]; [6]): 35000 nM

Structure (SMILES): COc1ccc2cc([C@H](C)C(=O)O)ccc2c1 [Naproxen]
- IC50 (COX-2 [3]): 1300 nM

Structure (SMILES): NC1=NN(c2cccc(C(F)(F)F)c2)CC1 [BW 755C]
- IC50 (COX-1 [1]; [8]): 650 nM
